# Assays:
# [1] = biological target: T1, Fe(3+)-Zn(2+) purple acid phosphatase (Phaseolus vulgaris, UniProt P80366); assay: Competitive inhibition of red kidney bean PAP using para-nitrophenol as substrate at pH 4.9 preincubated for 10 mins by UV-visible spectrophotometry
# T1 sequence (P80366 whole entry): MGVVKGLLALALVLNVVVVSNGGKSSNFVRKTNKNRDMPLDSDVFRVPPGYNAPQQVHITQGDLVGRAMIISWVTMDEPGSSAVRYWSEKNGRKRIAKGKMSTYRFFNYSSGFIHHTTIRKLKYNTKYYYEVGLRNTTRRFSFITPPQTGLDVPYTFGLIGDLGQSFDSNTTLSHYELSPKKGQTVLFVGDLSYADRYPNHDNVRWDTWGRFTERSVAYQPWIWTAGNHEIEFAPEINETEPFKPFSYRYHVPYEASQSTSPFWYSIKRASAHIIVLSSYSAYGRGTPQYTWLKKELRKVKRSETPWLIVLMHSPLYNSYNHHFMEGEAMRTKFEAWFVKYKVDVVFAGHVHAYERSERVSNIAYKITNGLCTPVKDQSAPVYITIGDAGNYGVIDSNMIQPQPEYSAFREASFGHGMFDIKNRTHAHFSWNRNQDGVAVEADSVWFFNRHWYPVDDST
# [2] = Competitive inhibition of pig PAP using para-nitrophenol as substrate at pH 4.9 preincubated for 10 mins by UV-visible spectrophotometry; design: species or system Sus scrofa
# [3] = biological target: T1, Fe(3+)-Zn(2+) purple acid phosphatase; assay: Uncompetitive inhibition of red kidney bean PAP using para-nitrophenol as substrate at pH 4.9 preincubated for 10 mins by UV-visible spectrophotometry
# [4] = Uncompetitive inhibition of pig PAP using para-nitrophenol as substrate at pH 4.9 preincubated for 10 mins by UV-visible spectrophotometry; design: species or system Sus scrofa
compound,measurement,setting,value
CCCCCCCCCCCCCC(=O)NC(c1cccc2ccccc12)P(=O)(O)O (racemic),Ki,[1],11 µM
same,Ki,[2],8 µM
CCCCCCCCCCCC(=O)NC(c1cccc2ccccc12)P(=O)(O)O (racemic),Ki,[1],5 µM
same,Ki,[2],21 µM
CCCC(=O)NC(c1cccc2ccccc12)P(=O)(O)O (racemic),Ki,[3],654 µM
same,Ki,[1],238 µM
same,Ki,[4],1440 µM
same,Ki,[2],363 µM
CCCCCCCC(=O)NC(c1cccc2ccccc12)P(=O)(O)O (racemic),Ki,[3],443 µM
same,Ki,[1],195 µM
same,Ki,[2],44 µM
CCCCCCC(=O)NC(c1cccc2ccccc12)P(=O)(O)O (racemic),Ki,[3],446 µM
same,Ki,[1],222 µM
same,Ki,[4],349 µM
same,Ki,[2],116 µM
CCCCCCCCCC(=O)NC(c1cccc2ccccc12)P(=O)(O)O (racemic),Ki,[3],102 µM
same,Ki,[1],57 µM
same,Ki,[2],10 µM
CCCCCCCCCCCCCCCC(=O)NC(c1cccc2ccccc12)P(=O)(O)O (racemic),Ki,[1],31 µM
same,Ki,[2],13 µM

# — ChEMBL document CHEMBL1770077, “Synthesis, modelling and kinetic assays of potent inhibitors of purple acid phosphatase” (Bioorg Med Chem Lett, 2011)
